From patent publication US5824771A, “Cyclic CRF agonists” (The Salk Institute for Biological Studies, priority 1997, dated 1998)
Bridge positions count the residues as written; N and C are the ends. Square brackets hold non-standard residues; d marks the D form. Peptide text beside a SMILES is read from it. Nle = CCCC[C@H](N)C(=O)O

Key:
[1] = test system: rat anterior pituitary cells; assay: In vitro stimulation of ACTH and β-endorphin secretion by cultured rat pituitary cells, potency compared with oCRF (Standard) or r/hCRF; type: cell-based; settings: for in vitro biopotency, comparison in words: compared with the Standard or with a named analog; for stimulation of secretion of ACTH and β-END-LI (testing by the general procedure), in words: general procedure of Example 1
Protocol: The cyclic CRF agonists are examined for their effects on the secretion of ACTH and β-endorphin in vitro and also in vivo. […] In vivo testing is carried out using the general procedure set forth in C. Rivier et al., Science, 218, 377 (1982).

[2] = Lowering of blood pressure on peripheral or iv administration; type: in vivo; settings: peripheral administration

Compound | in vitro biopotency, comparison in words [1] | stimulation of secretion of ACTH and β-END-LI (testing by the general procedure), in words [1] | lowering of blood pressure when administered peripherally, in words [2]
CCCC[C@H](NC(=O)[C@H](CCC(=O)O)NC(=O)[C@H](CC(C)C)NC(=O)[C@H](CCCC)NC(=O)[C@H](CCC(=O)O)NC(=O)[C@H](CCCNC(=N)N)NC(=O)[C@H](CC(C)C)NC(=O)[C@H](CC(C)C)NC(=O)[C@H](Cc1c[nH]cn1)NC(=O)[C@@H](Cc1ccccc1)NC(=O)[C@@H](NC(=O)[C@H](CC(C)C)NC(=O)[C@H](CC(=O)O)NC(=O)[C@H](CC(C)C)NC(=O)[C@H](CO)NC(C)=O)[C@@H](C)O)C(=O)N[C@@H](C)C(=O)N[C@@H](CCCCN)C(=O)N[C@@H](C)C(=O)N[C@@H](CCC(=O)O)C(=O)N[C@@H](CCC(N)=O)C(=O)N[C@@H](CCC(=O)O)C(=O)N[C@@H](C)C(=O)N[C@@H](CCC(=O)O)C(=O)N[C@H]1CCC(=O)NCCCC[C@@H](C(=O)N[C@@H](CC(N)=O)C(=O)N[C@@H](CCCNC(=N)N)C(=O)N[C@@H](CC(C)C)C(=O)N[C@@H](CC(C)C)C(=O)N[C@@H](CC(C)C)C(=O)N[C@@H](CCC(=O)O)C(=O)N[C@@H](CCC(=O)O)C(=O)N[C@@H](C)C(N)=O)NC(=O)[C@@H](Cc2c[nH]cn2)NC(=O)[C@H](C)NC1=O [Example 16 A D-His^32 cyclic analog] (Ac-SLDLT[dF]HLLRE[Nle]LE[Nle]AKAEQEAEEA[dH]KNRLLLEEA-NH2; lactam 24-27) | biopotency greater than the Standard peptide | – | –
CCCC[C@H](NC(=O)[C@H](CCC(=O)O)NC(=O)[C@H](CC(C)C)NC(=O)[C@H](CCCC)NC(=O)[C@H](CCC(=O)O)NC(=O)[C@H](CCCNC(=N)N)NC(=O)[C@H](CC(C)C)NC(=O)[C@H](CC(C)C)NC(=O)[C@H](Cc1c[nH]cn1)NC(=O)[C@@H](Cc1ccccc1)NC(=O)[C@@H](NC(=O)[C@H](CC(C)C)NC(=O)[C@H](CC(=O)O)NC(=O)[C@H](CC(C)C)NC(=O)[C@H](CO)NC(C)=O)[C@@H](C)O)C(=O)N[C@@H](C)C(=O)N[C@@H](CCCCN)C(=O)N[C@@H](C)C(=O)N[C@@H](CCC(=O)O)C(=O)N[C@@H](CCC(N)=O)C(=O)N[C@@H](CCC(=O)O)C(=O)N[C@@H](C)C(=O)N[C@@H](CCC(=O)O)C(=O)N[C@H]1CCC(=O)NCCCC[C@@H](C(=O)N[C@@H](CC(N)=O)C(=O)N[C@@H](CCCNC(=N)N)C(=O)N[C@@H](CC(C)C)C(=O)N[C@@H](CC(C)C)C(=O)N[C@@H](CC(C)C)C(=O)N[C@@H](CCC(=O)O)C(=O)N[C@@H](CCC(=O)O)C(=O)N[C@@H](C)C(N)=O)NC(=O)[C@@H](C)NC(=O)[C@H](C)NC1=O [Example 16 A, (cyclo 30-33)[Ac-Ser^7, D-Phe^12, Nle^18,21, Glu^30, D-Ala^32, Lys^33]-AHC(7-41)] (Ac-SLDLT[dF]HLLRE[Nle]LE[Nle]AKAEQEAEEA[dA]KNRLLLEEA-NH2; lactam 24-27) | – | strongly stimulates the secretion of ACTH and β-END-LI | very significant lowering of blood pressure
CCCC[C@H](NC(=O)[C@H](CCCCN)NC(=O)[C@H](CCCNC(=N)N)NC(=O)[C@H](CC(C)C)NC(=O)[C@H](CC(C)C)NC(=O)[C@H](CCC(=O)O)NC(=O)[C@@H](CC(C)C)NC(=O)[C@H](CO)NC(=O)[C@H](CC(C)C)NC(=O)[C@H](CC(=O)O)NC(=O)[C@@H](NC(=O)[C@H](CO)NC(C)=O)[C@@H](C)CC)C(=O)N[C@H](C(=O)N[C@@H](CCC(=O)O)C(=O)N[C@H](C(=O)N[C@@H](CCC(=O)O)C(=O)N[C@@H](CCCCN)C(=O)N[C@@H](CCC(N)=O)C(=O)N[C@@H](CCC(=O)O)C(=O)N[C@@H](CCCCN)C(=O)N[C@@H](CCC(=O)O)C(=O)N[C@@H](CCCCN)C(=O)N[C@@H](CCC(N)=O)C(=O)N[C@H]1CCC(=O)NCCCC[C@@H](C(=O)N[C@@H](CC(N)=O)C(=O)N[C@@H](CCCNC(=N)N)C(=O)N[C@@H](CC(C)C)C(=O)N[C@@H](CC(C)C)C(=O)N[C@@H](CC(C)C)C(=O)N[C@@H](CC(=O)O)C(=O)N[C@H](C(=O)N[C@H](C(N)=O)[C@@H](C)CC)[C@@H](C)O)NC(=O)[C@@H](C)NC(=O)[C@H](C)NC1=O)[C@@H](C)CC)[C@@H](C)CC [Example 16 C D-Ala^31 analog] (Ac-SIDLS[dL]ELLRK[Nle]IEIEKQEKEKQEA[dA]KNRLLLDTI-NH2; lactam 24-27) | shows increased biopotency | – | –
CCCC[C@H](NC(=O)[C@H](CCCCN)NC(=O)[C@H](CCCNC(=N)N)NC(=O)[C@H](CC(C)C)NC(=O)[C@H](CC(C)C)NC(=O)[C@H](CCC(=O)O)NC(=O)[C@@H](CC(C)C)NC(=O)[C@H](CO)NC(=O)[C@H](CC(C)C)NC(=O)[C@H](CC(=O)O)NC(=O)[C@@H](NC(=O)[C@H](CO)NC(C)=O)[C@@H](C)CC)C(=O)N[C@H](C(=O)N[C@@H](CCC(=O)O)C(=O)N[C@H](C(=O)N[C@@H](CCC(=O)O)C(=O)N[C@@H](CCCCN)C(=O)N[C@@H](CCC(N)=O)C(=O)N[C@@H](CCC(=O)O)C(=O)N[C@@H](CCCCN)C(=O)N[C@@H](CCC(=O)O)C(=O)N[C@@H](CCCCN)C(=O)N[C@@H](CCC(N)=O)C(=O)N[C@H]1CCC(=O)NCCCC[C@@H](C(=O)N[C@@H](CC(N)=O)C(=O)N[C@@H](CCCNC(=N)N)C(=O)N[C@@H](CC(C)C)C(=O)N[C@@H](CC(C)C)C(=O)N[C@@H](CC(C)C)C(=O)N[C@@H](CC(=O)O)C(=O)N[C@H](C(=O)N[C@H](C(N)=O)[C@@H](C)CC)[C@@H](C)O)NC(=O)[C@H](C)NC(=O)[C@H](C)NC1=O)[C@@H](C)CC)[C@@H](C)CC [Example 16 C, (cyclo 29-32)[Ac-Ser^6, D-Leu^11, Nle^17, Glu^29, Lys^32]-sauvagine(6-40)] (Ac-SIDLS[dL]ELLRK[Nle]IEIEKQEKEKQEAAKNRLLLDTI-NH2; lactam 24-27) | – | stimulates the secretion of ACTH and β-END-LI | very significant lowering of blood pressure
CCCC[C@H](NC(=O)[C@H](CCCCN)NC(=O)[C@H](C)NC(=O)[C@H](CCCNC(=N)N)NC(=O)[C@H](Cc1c[nH]cn1)NC(=O)[C@@H](NC(=O)[C@H](CCCC)NC(=O)[C@H](CC(N)=O)NC(=O)[C@H](CCCNC(=N)N)NC(=O)[C@H](CC(C)C)NC(=O)[C@H](CCCC)NC(=O)[C@H](Cc1c[nH]cn1)NC(=O)[C@@H](Cc1ccccc1)NC(=O)[C@@H](NC(=O)[C@H](CC(C)C)NC(=O)[C@H](CC(=O)O)NC(=O)[C@@H](NC(=O)[C@H](CO)NC(C)=O)[C@@H](C)CC)[C@@H](C)O)[C@@H](C)CC)C(=O)N[C@@H](CCC(=O)O)C(=O)NCC(=O)N[C@@H](CCC(=O)O)C(=O)N[C@@H](CCCNC(=N)N)C(=O)N[C@@H](CCC(=O)O)C(=O)N[C@H]1CCC(=O)NCCCC[C@@H](C(=O)N[C@@H](CC(N)=O)C(=O)N[C@@H](CCCNC(=N)N)C(=O)N[C@@H](CC(N)=O)C(=O)N[C@@H](CC(C)C)C(=O)N[C@@H](CC(C)C)C(=O)N[C@@H](CC(=O)O)C(=O)N[C@@H](CCC(=O)O)C(=O)N[C@H](C(N)=O)C(C)C)NC(=O)[C@@H](Cc2c[nH]cn2)NC(=O)[C@H](C)NC1=O [Example 16 E D-His^32 analog] (Ac-SIDLT[dF]H[Nle]LRN[Nle]IHRAK[Nle]EGEREEA[dH]KNRNLLDEV-NH2; lactam 24-27) | increases biopotency over that of the D-Leu^32 analog | stimulate the secretion of ACTH and β-END-LI | very significant lowering of blood pressure
CCCC[C@H](NC(=O)[C@H](CCCCN)NC(=O)[C@H](C)NC(=O)[C@H](CCCNC(=N)N)NC(=O)[C@H](Cc1c[nH]cn1)NC(=O)[C@@H](NC(=O)[C@H](CCCC)NC(=O)[C@H](CC(N)=O)NC(=O)[C@H](CCCNC(=N)N)NC(=O)[C@H](CC(C)C)NC(=O)[C@H](CCCC)NC(=O)[C@H](Cc1c[nH]cn1)NC(=O)[C@@H](Cc1ccccc1)NC(=O)[C@@H](NC(=O)[C@H](CC(C)C)NC(=O)[C@H](CC(=O)O)NC(=O)[C@@H](NC(=O)[C@H](CO)NC(C)=O)[C@@H](C)CC)[C@@H](C)O)[C@@H](C)CC)C(=O)N[C@@H](CCC(=O)O)C(=O)NCC(=O)N[C@@H](CCC(=O)O)C(=O)N[C@@H](CCCNC(=N)N)C(=O)N[C@@H](CCC(=O)O)C(=O)N[C@H]1CCC(=O)NCCCC[C@@H](C(=O)N[C@@H](CC(N)=O)C(=O)N[C@@H](CCCNC(=N)N)C(=O)N[C@@H](CC(N)=O)C(=O)N[C@@H](CC(C)C)C(=O)N[C@@H](CC(C)C)C(=O)N[C@@H](CC(=O)O)C(=O)N[C@@H](CCC(=O)O)C(=O)N[C@H](C(N)=O)C(C)C)NC(=O)[C@@H](CC(C)C)NC(=O)[C@H](C)NC1=O [Example 16 E, (cyclo 30-33)[Ac-Ser^7, D-Phe^12, Nle^14,18,24, Glu^30, D-Leu^32, Lys^33]-maggy urotensin(7-41)] (Ac-SIDLT[dF]H[Nle]LRN[Nle]IHRAK[Nle]EGEREEA[dL]KNRNLLDEV-NH2; lactam 24-27) | – | stimulate the secretion of ACTH and β-END-LI | very significant lowering of blood pressure
